Tests used:
[1] = target: T1, long isoform of human D2 receptor (Homo sapiens, UniProt P14416); experiment: Arrestin Antagonist Assay (DRD2L PathHunter CHO-K1 cells, vs EC80 dopamine); conditions: for Emax: CHO-K1, read-out: β-arrestin (antagonist mode) Imax
Method: (§1) Cell Lines: Activities of the compounds were assessed using a Chinese Hamster Ovary (CHO—K1) cell line that recombinantly expressed the long isoform of human D2 receptor (DRD2L PathHunter cells). The D2 receptor DNA sequence was modified to contain a “ProLink” at its C-terminus which allowed complementation with an “enzyme acceptor” (EA)-tagged β-arrestin protein. The recruitment of the O-arrestin by the D2 receptor led to complementation of the ProLink and EA and formation of active β-galactosidase which generated a D2-specific signal that was measured.
Arrestin Antagonist Assay: One day prior to testing, a vial of high density stock of DRD2L PathHunter cells was thawed, and 1×10^7 cells diluted into 40 mL of growth media (Ham's F12/10% HI FBS/1% PSG). 20 μL cells per well were seeded directly into assay plates, and the plates were allowed to rest for 1 h at RT before incubating in a plate incubator overnight.
The plate was incubated for 30 min at 37° C. 15 μL PathHunter detection reagent was added to each well of the assay plate, which was then covered and incubated for 1 h at RT. The plate was read on an Envision reader using the Luminescence protocol, and the data were exported for analysis.
The IC50 values (concentration producing a half-maximal inhibitory response) were determined by non-linear regression analysis of the concentration-response curves.

[2] = target: T1, long isoform of human D2 receptor; experiment: cAMP HTRF Agonist Assay (DRD2L PathHunter CHO-K1 cells, forskolin-stimulated); conditions: for Emax: CHO-K1, read-out: cAMP (agonist mode) Emax
[3] = target: T1, long isoform of human D2 receptor; experiment: Arrestin Agonist Assay (DRD2L PathHunter CHO-K1 cells, β-arrestin recruitment); conditions: for Emax: CHO-K1, read-out: β-arrestin (agonist mode) Emax
Method: as §1
Arrestin Agonist Assay: One day prior to testing, a vial of high density stock of DRD2L PathHunter cells was thawed, and 1×10^7 cells diluted into 40 mL of growth media (Ham's F12/10% HI FBS/1% PSG). 20 μL cells per well were seeded directly into assay plates, and the plates were allowed to rest for 1 h at RT before incubating in a plate incubator overnight.
5 μL diluted compound was added to cells in each well, and the assay plate was incubated for 90 min at 37° C. 12.5 μL PathHunter detection reagent was added to each well of the assay plate, which was then covered and incubated for 1 h at RT. The plate was read on an Envision reader using the Luminescence protocol, and the data were exported for analysis.
The agonist Emax results were expressed as a percent of the dopamine control response ((measured specific response/control specific agonist response)×100) obtained in the presence of test article. The EC50 values (concentration producing a half-maximal specific response) were determined by non-linear regression analysis of the concentration-response curves.

T1 sequence (P14416 whole entry, canonical isoform): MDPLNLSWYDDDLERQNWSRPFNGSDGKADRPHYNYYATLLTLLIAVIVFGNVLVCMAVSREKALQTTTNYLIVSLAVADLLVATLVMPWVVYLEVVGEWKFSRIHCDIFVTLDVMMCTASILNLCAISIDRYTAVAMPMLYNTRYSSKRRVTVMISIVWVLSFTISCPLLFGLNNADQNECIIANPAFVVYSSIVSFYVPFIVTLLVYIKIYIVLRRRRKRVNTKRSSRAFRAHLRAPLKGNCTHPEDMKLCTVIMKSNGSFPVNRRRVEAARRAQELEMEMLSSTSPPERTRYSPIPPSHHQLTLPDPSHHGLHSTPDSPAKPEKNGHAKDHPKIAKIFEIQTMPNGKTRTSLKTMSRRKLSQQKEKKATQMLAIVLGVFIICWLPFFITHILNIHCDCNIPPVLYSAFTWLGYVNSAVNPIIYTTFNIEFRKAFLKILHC

SMILES | IC50 [1] [nM] | Emax [1] [%] | IC50 [2] [nM] | Emax [2] [%] | EC50 [3] [nM] | Emax [3] [%]
O=C1CCc2ccc(OCCCCN3CCc4c(Cl)cccc4C3)nc2N1 [Compound 76, 7-(4-(5-chloro-3,4-dihydroisoquinolin-2(1H)-yl)butoxy)-3,4-dihydro-1,8-naphthyridin-2(1H)-one] | > 10000 | < 10 | < 10 | > 75 | < 10 | > 75
O=c1ccc2ccc(OCCCCN3CCc4ccccc4C3)nc2[nH]1 [Compound 52, 7-(4-(3,4-dihydroisoquinolin-2(1H)-yl)butoxy)-1,8-naphthyridin-2(1H)-one] | 10 to 100 | > 75 | < 10 | 50 to 75 | < 10 | 10 to 25
Oc1cccc2ccc(OCCCCN3CCc4cccc(C(F)(F)F)c4C3)nc12 [Compound 21, 2-(4-(8-(trifluoromethyl)-3,4-dihydroisoquinolin-2(1H)-yl)butoxy)quinolin-8-ol] | 100 to 1000 | > 75 | < 10 | 25 to 50 | > 10000 | < 10
O=C1CCc2ccc(OCCCCN3CCc4nn(-c5ccccc5)cc4C3)nc2N1 [Compound 82, 7-(4-(2-phenyl-6,7-dihydro-2H-pyrazolo[4,3-c]pyridin-5(4H)-yl)butoxy)-3,4-dihydro-1,8-naphthyridin-2(1H)-one] | 100 to 1000 | > 75 | > 10000 | < 10 | > 10000 | < 10
O=C1NCCc2ccc(OCCCCN3CCc4nn(-c5ccccn5)cc4C3)nc2N1 [Compound 90, 8-(4-(2-(pyridin-2-yl)-6,7-dihydro-2H-pyrazolo[4,3-c]pyridin-5(4H)-yl)butoxy)-4,5-dihydro-1H-pyrido[2,3-d][1,3]diazepin-2(3H)-one] | > 10000 | < 10 | < 10 | > 75 | 10 to 100 | > 75
O=C1CCc2ccc(OCCCCN3CCc4cc(C(F)(F)F)ccc4C3)nc2N1 [Compound 74, 7-(4-(6-(trifluoromethyl)-3,4-dihydroisoquinolin-2(1H)-yl)butoxy)-3,4-dihydro-1,8-naphthyridin-2(1H)-one] | 100 to 1000 | > 75 | 10 to 100 | 10 to 25 | > 10000 | < 10
CCOc1ccccc1N1CCN(CCCCOc2cccc(-c3cc[nH]n3)n2)CC1 [Compound 49, 1-(4-((6-(1H-pyrazol-3-yl)pyridin-2-yl)oxy)butyl)-4-(2-ethoxyphenyl)piperazine] | < 10 | 50 to 75 | < 10 | 50 to 75 | < 10 | 10 to 25
Clc1cccc2c1CCN(CCCCOc1cccc(-c3cc[nH]n3)n1)C2 [Compound 45, 2-(4-((6-(1H-pyrazol-3-yl)pyridin-2-yl)oxy)butyl)-5-chloro-1,2,3,4-tetrahydroisoquinoline] | > 10000 | < 10 | < 10 | > 75 | 10 to 100 | > 75
c1cc(OCCCCN2CCc3ccccc3C2)nc(-c2c[nH]cn2)c1 [Compound 51, 2-(4-((6-(1H-imidazol-4-yl)pyridin-2-yl)oxy)butyl)-1,2,3,4-tetrahydroisoquinoline] | 100 to 1000 | > 75 | > 10000 | < 10 | > 10000 | < 10
Cc1cccc(N2CCN(CCCCOc3ccc4cn[nH]c4c3)CC2)c1C [Compound 95, 6-(4-(4-(2,3-dimethylphenyl)piperazin-1-yl)butoxy)-1H-indazole] | 10 to 100 | > 75 | 10 to 100 | 10 to 25 | > 10000 | < 10
Oc1cccc2ccc(OCCCCN3CCN(c4cccc5ccccc45)CC3)nc12 [Compound 6, 2-(4-(4-(naphthalen-1-yl)piperazin-1-yl)butoxy)quinolin-8-ol] | 100 to 1000 | 50 to 75 | 10 to 100 | 25 to 50 | 100 to 1000 | 25 to 50
O=c1ccc2ccc(OCCCCN3CCc4cccc(C(F)(F)F)c4C3)nc2[nH]1 [Compound 63, 7-(4-(8-(trifluoromethyl)-3,4-dihydroisoquinolin-2(1H)-yl)butoxy)-1,8-naphthyridin-2(1H)-one] | 10 to 100 | > 75 | > 10000 | < 10 | > 10000 | < 10
O=C1CCc2ccc(OCCCCN3CCc4ncncc4C3)cc2N1 [Compound 23, 7-(4-(7,8-dihydropyrido[4,3-d]pyrimidin-6(5H)-yl)butoxy)-3,4-dihydroquinolin-2(1H)-one] | 1000 to 10000 | 25 to 50 | 100 to 1000 | 50 to 75 | 100 to 1000 | 10 to 25
O=C1CCc2ccc(OCCCCN3CCc4nccnc4C3)cc2N1 [Compound 25, 7-(4-(7,8-dihydropyrido[3,4-b]pyrazin-6(5H)-yl)butoxy)-3,4-dihydroquinolin-2(1H)-one] | 1000 to 10000 | 25 to 50 | 1000 to 10000 | 50 to 75 | 100 to 1000 | 25 to 50
O=C1CCc2ccc(OCCCCN3CCc4ccsc4C3)cc2N1 [Compound 28, 7-(4-(4,5-dihydrothieno[2,3-c]pyridin-6(7H)-yl)butoxy)-3,4-dihydroquinolin-2(1H)-one] | 100 to 1000 | > 75 | < 10 | 10 to 25 | > 10000 | < 10
O=C1CCc2ccc(OCCCCN3CCc4nn(-c5ccccc5)cc4C3)cc2N1 [Compound 30, 7-(4-(2-phenyl-6,7-dihydro-2H-pyrazolo[4,3-c]pyridin-5(4H)-yl)butoxy)-3,4-dihydroquinolin-2(1H)-one] | 10 to 100 | > 75 | 10 to 100 | 25 to 50 | < 10 | 10 to 25
O=C1CCc2ccc(OCCCCN3CCc4sccc4C3)nc2N1 [Compound 69, 7-(4-(6,7-dihydrothieno[3,2-c]pyridin-5(4H)-yl)butoxy)-3,4-dihydro-1,8-naphthyridin-2(1H)-one] | 10 to 100 | > 75 | > 10000 | < 10 | > 10000 | < 10
COc1ccc2c(c1)CCN(CCCCOc1ccc3c(n1)NC(=O)CC3)C2 [Compound 71, 7-(4-(6-methoxy-3,4-dihydroisoquinolin-2(1H)-yl)butoxy)-3,4-dihydro-1,8-naphthyridin-2(1H)-one] | 10 to 100 | > 75 | > 10000 | < 10 | > 10000 | < 10
O=C1NCCc2ccc(OCCCCN3CCc4nn(-c5ccccc5)cc4C3)nc2N1 [Compound 89, 8-(4-(2-phenyl-6,7-dihydro-2H-pyrazolo[4,3-c]pyridin-5(4H)-yl)butoxy)-4,5-dihydro-1H-pyrido[2,3-d][1,3]diazepin-2(3H)-one] | 10 to 100 | 50 to 75 | 10 to 100 | 25 to 50 | 10 to 100 | 25 to 50

From patent US9951088B2, “D2 receptor modulators and methods of use thereof in the treatment of diseases and disorders” (SUNOVION PHARMACEUTICALS INC., priority 2012, dated 2018)
